The subject of this experiment is S. Typhimurium PhoP-regulated promoter GFP reporter, 4 h. Description: PhoP-dependent GFP reporter repression – Salmonella Typhimurium, primary screen (AID 1863).

Usually IC50 stands for the concentration that inhibits the measured activity by half.

“And” between values parts separate entries of the source, which are not always exact repeats. Identical values can stand only once.

In the case of `Cc1ccc(Nc2c3c(nc4ccccc24)CCC3)cc1`, the IC50 was 137 µM.
The value for `Cc1ccc(Nc2nc(NCc3ccco3)c3ccccc3n2)cc1` was 44.1 µM.
To `COC(=O)C1C(O)C(C)C(O)C(C)(O)/C=C\C=C(/C)C(=O)Nc2c(C)c(OC(C)=O)c3c(c2O)C(=O)C(C)=C2OCOC(=C23)/C(C)=C/C(C)(O)C(O)C(C)C1O` (stereo not given) belongs 17.2 µM.
To `COc1cnc(-c2ccccn2)[nH]c1=O` belongs 55.2 µM; to `COc1ccc(C(=O)N/N=C/c2sc3ccccc3c2O)cc1`, 107 µM.
Take `CCCCCCCCNC(C)C(O)c1ccc(SC(C)C)cc1` (stereo not given): the IC50 was 75.2 µM.
For the compound `Nc1nonc1-n1nnc(C(=O)N/N=C/c2cc(Br)ccc2O)c1CSC1=NCCS1`, the half-inhibitory concentration (IC50) was 122 µM.
The value for `C=CCNc1ncnc2c1[nH]c1ccc(Cl)cc12` was 137 µM; that for `Nc1nc(F)nc2c1ncn2[C@@H]1O[C@H](CO)[C@@H](O)[C@H]1O` was 27.8 µM.
`c1ccc2c(c1)Sc1ccccc1N2CC1CN2CCC1CC2` (stereo not given): the IC50 was 133 µM.
To `CCn1cc(C(=O)O)c(=O)c2cc(F)c(N3CCN(C)CC3)cc21` belongs 1 µM; to `Cc1ccc(-c2csc(NC(=O)C[n+]3cc(-c4ccc(C)cc4)n4c3CCC4)n2)cc1`, 50 µM; to `O=[N+]([O-])c1ccc(-c2ccn[nH]2)o1`, 38.3 µM.
To `Nc1ccc2c(c1)C(=O)C(=O)c1ccccc1-2` belongs 11.9 µM; to `Cc1ccc(-c2c[n+](CC(=O)Nc3nc(-c4ccc(F)cc4)cs3)c3n2CCC3)cc1`, 67.8 µM.
The value for `CN1CCc2c(sc(NC(=O)c3ccc([N+](=O)[O-])o3)c2C(N)=O)C1` was 52.8 µM.
On to `COc1cc(C)c(Cc2cnc(N)nc2N)cc1OC`, for which the IC50 was 11.7 µM.
The value for `CCCCCCCOC(=O)C[N+](C)(C)CCOC1CC2CCC1(C)C2(C)C` (stereo not given) was 25.3 µM; that for `Cc1nc(N)nc(N)c1/C=C/C(C)(C)c1ccc(Cl)cc1` was 18.5 µM; that for `CC(C)(C)CC(C)(C)c1ccc(OCCOCC[N+](C)(C)Cc2ccccc2)cc1` was 35.9 µM.
To `Oc1cccc2ccc(Nc3ccccn3)nc12` belongs 18.9 µM; to `CC[n+]1c(/C=C/C=C/c2ccc(N(C)C)cc2)sc2ccccc21`, 69.6 µM.
The value for `CCn1cc(C(=O)O)c(=O)c2cc(F)c(N3CCN(C(=S)NC(=O)c4ccccc4F)CC3)cc21` was 28.5 µM; that for `Clc1cc(Br)ccc1OCCCNCc1ccccc1` was 82.8 µM; that for `CCCCCCCCCCOC(=O)Cn1c(COc2ccc(OC)cc2)[n+](C)c2ccccc21` was 22.9 µM and 22.5 µM.
As for `CCCCCCCCCCCCCCCC[n+]1cccc2ccccc21`, the IC50 was 24.9 µM.
To `CCCOc1ccc(C(=O)NC(=S)N2CCN(c3cc4c(cc3F)c(=O)c(C(=O)O)cn4CC)CC2)cc1` belongs 24.3 µM; to `CN1/C(=C\C=C\C2=[N+](C)c3ccc4ccccc4c3C2(C)C)C(C)(C)c2ccccc21`, 10.2 µM.
To `O=C(Nc1ccc(Cl)c(Cl)c1)Nc1ccccc1O` belongs 135 µM.
The value for `COc1cccc(/C=N\NC(=O)Cn2nnc3ccccc32)c1O` was 84.3 µM; that for `CCN1CCN(C(c2ccc(C(F)(F)F)cc2)c2ccc3cccnc3c2O)CC1` (stereo not given) was 55.1 µM.
Turning to `Cc1nc(N)c(Cc2ccc(Cl)cc2Cl)c(N)n1`, the IC50 was 105 µM.
The value for `CCn1cc(C(=O)O)c(=O)c2cc(F)c(N3CCN(C(=S)NC(=O)c4ccc(OC)cc4)CC3)cc21` was 11.3 µM; that for `CC1CCCC(C)N1/N=C/c1c[nH]c2ccc(Br)cc12` (stereo not given) was 94.9 µM.
With `CCn1cc(C(=O)O)c(=O)c2cc(F)c(N3CCN(C(=S)NC(=O)c4c(OC)cccc4OC)CC3)cc21`, the IC50 is 30 µM.
To `O=C(CN1CCCC1)N/N=C/c1c(O)ccc2ccccc12` belongs 56.4 µM; to `O=C(N/N=C\C=C\c1ccc([N+](=O)[O-])o1)c1cccs1`, 23.5 µM.
To `CCCCCCCCCCOC(=O)Cn1c(COc2ccccc2OC)[n+](C)c2ccccc21` belongs 28.6 µM; to `C#CCOCCOCCOCCNc1nc(N2CCN(C(=O)CCCCCCCCCCNC(=O)[C@H](CCCN=C(N)N)n3cc(C[C@@H](C)CC)nn3)CC2)nc(N2CCN(C(=O)CCCCCCCCCCNC(=O)[C@@H]([C@H](C)CC)n3cc(CCCCCN)nn3)CC2)n1`, 83.1 µM.
The value for `Nc1ncn(C2O[C@H](CO)[C@@H](O)[C@H]2O)c(=O)n1` (stereo not given in full) was 39.9 µM.
Consider `CCCc1cnc(NCCNCC(O)COc2ccc(Cl)c(Cl)c2)nc1` (stereo not given), for which the IC50 is 54.2 µM.
To `CC(=O)NC(c1cccc([N+](=O)[O-])c1)c1ccc2cccnc2c1O` (stereo not given) belongs 105 µM; to `CCCCCCNC(=O)c1cn(CC)c2cc(N3CCN(C)CC3)c(F)cc2c1=O`, 23.2 µM.
On to `C#CCOCCOCCOCCNc1nc(N2CCN(C(=O)CCCCCCCCCCNC(=O)[C@H]([C@@H](C)CC)n3cc(CCCCN=C(N)N)nn3)CC2)nc(N2CCN(C(=O)CCCCCCCCCCNC(=O)[C@H](CCCN=C(N)N)n3cc(C[C@@H](C)CC)nn3)CC2)n1`, for which the IC50 was 75.2 µM.
The value for `Cc1cccc(Nc2c3c(nc4ccccc24)CCC3)c1` was 106 µM; that for `NC(N)=N/N=C/c1ccc(OCc2ccc(Cl)cc2)cc1` was 39.4 µM.
To `C[C@H]1O[C@@H](n2cc(F)c(=O)[nH]c2=O)[C@H](O)[C@@H]1O` belongs 22.8 µM.
Turning to `Fc1ccc(Nc2nc(NCc3ccco3)c3ccccc3n2)cc1`, the concentration for half-maximal inhibition (IC50) is 37.9 µM.
As to `O=Nc1ccc(O)c2ncccc12`, the IC50 was 56.3 µM.
`Clc1ccc(OCCn2ccnc2)c2ccccc12`: the IC50 is 85.6 µM.
With `O=Cc1ccc(O)c2ncccc12`, the IC50 was 10.2 µM.
To `O=C(N/N=C/c1cc([N+](=O)[O-])ccc1O)c1ccncc1` belongs 58.4 µM.
To `NCCc1c(-c2ccccc2)n(-c2ccccc2)c2ccccc12` belongs 65.9 µM; to `NC1=NC[C@H](c2ccccc2)N1CCCCC1CCCCC1`, 40.6 µM.
As for `Clc1c(OCCCn2ccnc2)ccc2ccccc12`, the IC50 is 93.3 µM.
The value for `Nc1nc2ccccc2n1Cc1ccc(Cl)c(Cl)c1` was 82.9 µM; that for `CCN1CCN(C(c2cccnc2)c2cc(Cl)c3cccnc3c2O)CC1` (stereo not given) was 78.5 µM.
In the case of `Cc1ccc(Nc2cc(C)nn2-c2nc(C)cc(=O)[nH]2)cc1`, the IC50 is 32.4 µM.
To `CCOC(=O)N1CCN(C(=O)c2cn(CC)c3cc(N4CCN(C)CC4)c(F)cc3c2=O)CC1` belongs 4.9 µM; to `CN1CCN(C(c2ccc(Cl)cc2)c2cc(Cl)c3cccnc3c2O)CC1` (stereo not given), 44.1 µM.
To `NC1=NC[C@H](Cc2ccc(O)cc2)N1CCC12CC3CC(CC(C3)C1)C2` belongs 75.3 µM; to `COC(=O)c1c(NC(=O)c2ccc([N+](=O)[O-])o2)sc2c1CCN(C(C)C)C2`, 56.3 µM; to `COC1C(OC(=O)c2ccc(C)[nH]2)C(O)C(Oc2ccc3c(O)c(NC(=O)c4ccc(O)c(CC=C(C)C)c4)c(=O)oc3c2Cl)OC1(C)C` (stereo not given), 11.8 µM.
The value for `CCn1cc(C(=O)O)c(=O)c2cc(F)c(N3CCN(C(=S)NC(=O)c4cccc(C)c4)CC3)cc21` was 14.7 µM; that for `CC(=O)c1c(C)n([O-])c2cc(F)c(F)cc2[n+]1=O` was 130 µM; that for `CCn1cc(C(=O)O)c(=O)c2cc(F)c(N3CCN(C(=S)NC(=O)c4cccc(F)c4)CC3)cc21` was 18.3 µM.
Take `Cc1ccc(C(c2cc(Cl)c3cccnc3c2O)N2CCN(C)CC2)cc1` (stereo not given): the IC50 is 55.5 µM.
Regarding `C(=N\Nc1ccccn1)/c1cccnc1`, the IC50 was 40.5 µM.
As to `O=C(Oc1c(Cl)cc(Cl)c2cccnc12)c1ccco1`, the IC50 was 46.5 µM.
To `Oc1cccc(/C=N/Nc2ccc(Cl)nn2)c1O` belongs 138 µM; to `CC1CCC(C(C)C)C(OC(=O)Cn2c(COc3ccccc3)[n+](C)c3ccccc32)C1` (stereo not given), 72.3 µM.
The value for `NC(N)=NN=C1CCCCCCCCCCC1` was 100 µM; that for `O=C(C[n+]1cc(-c2ccc(Cl)cc2)n2c1CCC2)Nc1nc(-c2ccc(F)cc2)cs1` was 73.7 µM; that for `CCCNC(=O)c1cn(CC)c2cc(N3CCN(C)CC3)c(F)cc2c1=O` was 25.8 µM.
To `CCCCCCCCCCCCCCCC[N+](C)(C)CCN(Cc1ccc(OC)cc1)c1ncccn1` belongs 30.2 µM; to `Cc1cc(C(=O)N/N=C/c2cc(Br)cc([N+](=O)[O-])c2O)c2ccccc2n1`, 118 µM.
Turning to `CCn1cc(C(=O)O)c(=O)c2cc(F)c(N3CCN(C(=S)NC(=O)c4ccccc4C)CC3)cc21`, the 50% inhibitory concentration (IC50) was 13.5 µM.
Regarding `CNC[C@H](Cc1ccccc1)NC[C@@H](Cc1cccc2ccccc12)NCCc1ccc(C)cc1`, the concentration for half-maximal inhibition (IC50) was 27.1 µM.
To `CCCC(=O)NC(c1cccs1)c1cc([N+](=O)[O-])c2cccnc2c1O` (stereo not given) belongs 38.2 µM.
Turning to `CN(C)[C@@H]1C(=O)C(C(N)=O)=C(O)[C@@]2(O)C(=O)C3=C(O)c4c(O)cccc4[C@@](C)(O)C3[C@H](O)C12` (stereo not given in full), the half-inhibitory concentration (IC50) was 1.74 µM.
To `CCCCCCCSc1cc(OC)c(CCN(C)C)cc1OC` belongs 67.5 µM; to `Cn1cnc([N+](=O)[O-])c1Oc1cccc(O)c1`, 113 µM; to `C[C@H]1COc2c(N3CCN(C)CC3)c(F)cc3c(=O)c(C(=O)O)cn1c23`, below 0.23 µM.
To `CCCCCC(CC(=O)NO)C(=O)NC(C(=O)N1CCCC1CO)C(C)C` (stereo not given) belongs 12.7 µM; to `Oc1c(I)cc(Cl)c2cccnc12`, 17.9 µM; to `CCn1cc(C(=O)NCC(C)C)c(=O)c2cc(F)c(N3CCN(C)CC3)cc21`, 38.2 µM.
To `Oc1c(C(Nc2ccccn2)c2ccccn2)ccc2cccnc12` (stereo not given) belongs 91.6 µM; to `CC1COc2c(N3CCN(C)CC3)c(F)cc3c(=O)c(C(=O)O)cn1c23` (stereo not given), 0.39 µM.
Turning to `CCCCCCCCCCOC(=O)Cn1c(COc2cccc(C)c2)[n+](C)c2ccccc21`, the IC50 was 18.7 µM.
The value for `O=[N+]([O-])c1cc(CN2CCOCC2)c2cccnc2c1O` was 44.2 µM.
To `Cc1ccccc1OCc1n(CC(=O)OC2CC(C)CCC2C(C)C)c2ccccc2[n+]1C` (stereo not given) belongs 71 µM; to `CCn1cc(C(=O)O)c(=O)c2cnc(N3CCNCC3)nc21`, 29.8 µM; to `Oc1ccc(Cl)cc1Cc1cc(Cl)ccc1O`, 36.6 µM.
Take `COc1c(N2CCN(C(=S)NCc3ccccc3)C(C)C2)c(F)cc2c(=O)c(C(=O)O)cn(C3CC3)c12` (stereo not given): the IC50 was 43.3 µM.
To `Cc1ccc(Nc2nc(N)c3ccccc3n2)cc1Cl` belongs 67.6 µM.

The record behind these values is PubChem BioAssay AID1863 (Southern Research Specialized Biocontainment Screening …, 2009).
